According to patent US11179329B2, “Therapeutical use of H3-ligands” (BIOPROJET Pharma, priority 2017, dated 2021):
Read-outs that look alike come from different tables or passages of the source.

Legend:
[1] = Comparative pharmacokinetic data in mice (plasma and brain); settings: male swiss mice; for AUC brain / AUC plasma: normalized at 1 mg of base/kg, 24 hours sampling
Experimental: (§1) Compounds were administered to male swiss mice at a dose close to 1 mg of base/kg.

[2] = mouse, in vivo
Experimental: as §1

[3] = PK results in human, Compound (A) given orally once-a-day; type: in vivo; settings: for Cmax: po, 60 ug
Experimental: Steady state seems to be attained after 7 to 8 days of treatment for the 60 μg dose.

vigilance = experiment: Activity on vigilance in human; type: in vivo
H3 receptor = experiment: H3R occupancy in brain by PET imaging with [11C]GSK189254 in healthy volunteers; type: in vivo; settings: human
Experimental: The process of imaging requires the injection of a positron-emitting radiotracer that binds to the receptor followed by the measurement of this binding using the PET scanner.
This method allows to predict the therapeutic dose of a new H3 receptor inverse agonist/antagonist in two steps: 1/the degree of receptor occupancy associated with the dose ensuring therapeutic efficacy of a known drug A is determined, 2/the dose of the new drug B ensuring the same receptor occupancy as A at therapeutic dose is evaluated.
This strategy was applied by comparing H3R occupancy in healthy volunteers receiving pitolisant, an approved and marketed H3R inverse agonist, at its oral maximal therapeutic dose of 40 mg to occupancy by Compound (A) given at several dosages.

[4] = PK results in human, Compound (A) given orally once-a-day; type: in vivo; settings: for Cmax: serum, po, 90 ug
[5] = in vivo; cited from earlier work
histamine H3 receptor = histamine H3 receptor (Homo sapiens, UniProt Q9Y5N1); settings: cited from earlier work
histamine H3 receptor, sequence (Q9Y5N1 whole entry, species assumed): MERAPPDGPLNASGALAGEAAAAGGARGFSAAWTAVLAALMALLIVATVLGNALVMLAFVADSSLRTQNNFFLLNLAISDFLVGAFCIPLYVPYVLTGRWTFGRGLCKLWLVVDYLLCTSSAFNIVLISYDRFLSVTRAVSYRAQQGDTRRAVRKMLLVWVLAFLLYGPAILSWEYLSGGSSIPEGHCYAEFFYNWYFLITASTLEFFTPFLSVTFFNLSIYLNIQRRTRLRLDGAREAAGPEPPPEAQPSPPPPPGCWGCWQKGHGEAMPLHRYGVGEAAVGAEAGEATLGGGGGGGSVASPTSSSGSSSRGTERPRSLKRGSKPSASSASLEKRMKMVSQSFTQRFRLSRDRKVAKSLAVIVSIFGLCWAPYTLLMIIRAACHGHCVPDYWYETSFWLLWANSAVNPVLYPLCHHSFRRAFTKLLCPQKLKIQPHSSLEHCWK

[6] = Solid-state stability / hygroscopicity of the dihydrochloride forms; type: physicochemical
Experimental: The tetrahydrate of compound (A) is stable for relative humidity ranging from at least 30% to 70% which is an improved property as compared to the hygroscopic nature of the previously described dihydrochloride. The tetrahydrate of compound (A) is also stable for temperatures ranging from 20° C. to 40° C.

Molecule | ratio of plasma AUC over the AUC of the dihydrochloride tetrahydrate [1] | AUC brain [1] [ng·h/g] | AUC plasma [1] [ng·h/mL] | ratio of plasma AUC over the AUC of the dihydrochloride tetrahydrate [2] | other results
C[C@H]1CCCN(CCCOc2ccc(-c3cc[n+]([O-])cc3)cc2)C1.O=S(=O)(O)O [Example 15, (3S)-4-{4-[3-(3-methylpiperidin-1-yl)propoxy]phenyl}pyridine 1-oxide sulfate] | 0.8 | 639 | 466 |  | 
(3S)-4-{4-[3-(3-methylpiperidin-1-yl)propoxy]phenyl}pyridine 1-oxide orotate dihydrate [Example 17] | 0.6 | 529 | 389 |  | 
C[C@H]1CCCN(CCCOc2ccc(-c3cc[n+]([O-])cc3)cc2)C1.O=C(O)c1cc2ccccc2c(Cc2c(O)c(C(=O)O)cc3ccccc23)c1O [Example 8, (3S)-4-{4-[3-(3-methylpiperidin-1-yl)propoxy]phenyl}pyridine 1-oxide pamoate] | 0.9 | 952 | 587 |  | 
CCO.C[C@H]1CCCN(CCCOc2ccc(-c3cc[n+]([O-])cc3)cc2)C1.C[C@H]1CCCN(CCCOc2ccc(-c3cc[n+]([O-])cc3)cc2)C1.O.O.O=S(=O)(O)c1cccc2c(S(=O)(=O)O)cccc12.O=S(=O)(O)c1cccc2c(S(=O)(=O)O)cccc12 [Example 11, (3S)-4-{4-[3-(3-methylpiperidin-1-yl)propoxy]phenyl}pyridine 1-oxide 1,5-naphtalenedisulfonate monohydrate hemiethanolate] |  |  |  | 0.7 | 
C[C@H]1CCCN(CCCOc2ccc(-c3cc[n+]([O-])cc3)cc2)C1 [Compound (A), (3S)-4-{4-[3-(3-methylpiperidin-1-yl)propoxy]phenyl}pyridine 1-oxide] |  |  |  |  | dose proportionality of serum exposure (mean Cmax and AUC0-24 h dose normalized ratios) ([3]; human volunteers, between 60 and 90 μg o.d., Day 1 and Day 10): tendency to increase more than dose-proportionally; decrease of total body clearance (Clss/F) after repeated dosing ([3]; human, 60 μg): 65%; higher AUC0-24 h after repeated dosing (Day 10) than after a single dose (Day 1) ([3]; human, 60 μg): 73%; higher Cmax after repeated dosing (Day 10) than after a single dose (Day 1) ([3]; human, 60 μg): 42%; Cmax ([3]; human, serum, human, oral 60 μg once-a-day, after repeated dose): 0.172 ng/mL; Cmax ([3]; human, serum, human, oral 60 μg, after a single dose): 0.121 ng/mL; half-life ([3]; serum, oral, human, determined at Day 10 after multiple administrations, read-out: mean t1/2 (converted)): ~1980 min; activity on vigilance (vigilance; 30 μg daily, when going to bed at night): delay in falling asleep; effect of repeated treatment on sleep (vigilance; 90 μg once-a-day for 10 days): some insomnia; Percent H3R occupancy ± SD At through (24 h) (H3 receptor; 30 μg once): −46.50 ± 12.71%; potency relative to the marketed drug pitolisant (H3 receptor; doses of equal H3R occupancy): 1,000 fold; decrease of total body clearance (Clss/F) after repeated dosing ([4]; 90 μg): 74%; higher AUC0-24 h after repeated administration (% accumulation) ([4]; 90 μg): 113%; higher Cmax after repeated administration (% accumulation) ([4]; 90 μg): 101%; Cmax ([4]; oral 90 μg once-a-day, after repeated dose): 0.344 ng/mL; Cmax ([4]; oral 90 μg, after a single dose): 0.171 ng/mL
C[C@H]1CCCN(CCCOc2ccc(-c3cc[n+]([O-])cc3)cc2)C1.O=C(O)C(=O)O [Example 6, (3S)-4-{4-[3-(3-methylpiperidin-1-yl)propoxy]phenyl}pyridine 1-oxide oxalate] | 0.9 | 923 | 562 |  | 
C[C@H]1CCCN(CCCOc2ccc(-c3cc[n+]([O-])cc3)cc2)C1 [Example 5, (3S)-4-{4-[3-(3-methylpiperidin-1-yl)propoxy]phenyl}pyridine 1-oxide base] | 1.2 | 860 | 769 |  | 
Br.C[C@H]1CCCN(CCCOc2ccc(-c3cc[n+]([O-])cc3)cc2)C1 [Example 13, (3S)-4-{4-[3-(3-methylpiperidin-1-yl)propoxy]phenyl}pyridine 1-oxide bromhydrate] |  |  |  | 0.6 | 
C[C@H]1CCCN(CCCOc2ccc(-c3cc[n+]([O-])cc3)cc2)C1.O=P(O)(O)O [Example 12, (3S)-4-{4-[3-(3-methylpiperidin-1-yl)propoxy]phenyl}pyridine 1-oxide phosphate] | 0.6 | 630 | 350 |  | 
(3S)-4-{4-[3-(3-methylpiperidin-1-yl)propoxy]phenyl}pyridine 1-oxide 5-sulfosalicylate [Example 18] | 0.6 | 513 | 400 |  | 
C[C@H]1CCCN(CCCOc2ccc(-c3cc[n+]([O-])cc3)cc2)C1.O=C(O)/C=C/C(=O)O [Example 9, (3S)-4-{4-[3-(3-methylpiperidin-1-yl)propoxy]phenyl}pyridine 1-oxide fumarate] | 0.7 | 882 | 448 |  | 
C[C@H]1CCCN(CCCOc2ccc(-c3cc[n+]([O-])cc3)cc2)C1.C[C@H]1CCCN(CCCOc2ccc(-c3cc[n+]([O-])cc3)cc2)C1.Cc1ccc(S(=O)(=O)O)cc1.Cc1ccc(S(=O)(=O)O)cc1.O.O.O.O.O [Example 10, (3S)-4-{4-[3-(3-methylpiperidin-1-yl)propoxy]phenyl}pyridine 1-oxide para-toluenesulfonate sestertihydrate (2.5)] |  |  |  | 1.2 | 
(3S)-4-{4-[3-(3-methylpiperidin-1-yl)propoxy]phenyl}pyridine 1-oxide sesquiglycolate monohydrate [Example 21] | 0.6 | 484 | 348 |  | 
[11CH3]NC(=O)c1ccc(Oc2ccc3c(c2)CCN(C2CCC2)CC3)nc1 [[^11C]GSK189254] |  |  |  |  | brain penetration [5]: good brain penetration; terminal half-life [5]: 1.6 ± 0.4 h; affinity for the histamine H3 receptor (histamine H3 receptor): high affinity
C[C@H]1CCCN(CCCOc2ccc(-c3cc[n+]([O-])cc3)cc2)C1.Cl.Cl.O.O.O.O [Example 4, (3S)-4-{4-[3-(3-methylpiperidin-1-yl)propoxy]phenyl}pyridine 1-oxide dihydrochloride tetrahydrate] | 1.0 | 1040 | 619 |  | stability (general) [6]: very stable; stability against relative humidity ([6]; relative humidity ranging from at least 30% to 70%): stable; stability against temperature ([6]; temperatures ranging from 20° C. to 40° C.): stable
C[C@H]1CCCN(CCCOc2ccc(-c3cc[n+]([O-])cc3)cc2)C1.O.O=C(O)c1ccc2ccccc2c1O [Example 19, (3S)-4-{4-[3-(3-methylpiperidin-1-yl)propoxy]phenyl}pyridine 1-oxide 1-hydroxy-2-naphtoate monohydrate] |  |  |  | 0.6 | 
Br.Br.C[C@H]1CCCN(CCCOc2ccc(-c3cc[n+]([O-])cc3)cc2)C1 [Example 16, (3S)-4-{4-[3-(3-methylpiperidin-1-yl)propoxy]phenyl}pyridine 1-oxide dibromhydrate] |  |  |  | 0.6 | 
C[C@H]1CCCN(CCCOc2ccc(-c3cc[n+]([O-])cc3)cc2)C1.O=C(O)c1cc2ccccc2cc1O [Example 20, (3S)-4-{4-[3-(3-methylpiperidin-1-yl)propoxy]phenyl}pyridine 1-oxide 3-hydroxy-2-naphtoate] |  |  |  | 0.6 | 
C[C@H]1CCCN(CCCOc2ccc(-c3cc[n+]([O-])cc3)cc2)C1.O.O.O.O=C(O)C(O)C(O)C(=O)O [Example 7, (3S)-4-{4-[3-(3-methylpiperidin-1-yl)propoxy]phenyl}pyridine 1-oxide L-tartrate trihydrate] | 0.7 | 814 | 447 |  | 
